≈ marks a conversion by molar mass, not a printed value.
Tests used:
Type in all cases: cell-based
[1] = system: U-937; experiment: Growth inhibition of cultured human tumor cell lines in microtiter plates, WST-1 assay; settings: U-937, Lymphoma, 5 days; for IC50: Homo sapiens, 120 h, read-out: Antiproliferative activity IC50
Method: (§1) For the detailed evaluation of their biological profile as anti-cancer agents, cultured human tumor cell lines were treated with the new ansamitocin derivatives. In particular, the 19-fluoro-20-demethoxyansamitocin P3 (F-A), 19-chloro-20-demethoxyansamitocin P3 (Cl-A), 19-bromo-20-demethoxyansamitocin P3 (Br-A), and the 20-demethoxy-19-vinylansamitocin P3 (VI) were tested for their inhibitory effect on cell growth of different cell lines, namely KB-3-1, U-937, PC-3, SK-OV-3, A-498, A-431, and A-549, in comparison to natural biosynthesis product Ansamitocin P-3 (AP-3). Growth inhibition was measured in microtiter plates. 60 µl of serial dilutions of the test compounds were added to aliquots of 120 µl of the suspended cells (50000/ml). After 5 days the growth was determined using a MTT assay, except for U-937, where the WST-1 assay from Roche was employed.

[2] = system: SK-OV-3; experiment: Growth inhibition of cultured human tumor cell lines in microtiter plates, MTT assay; settings: SK-OV-3, Ovarian carcinoma, 5 days; for IC50: Homo sapiens, 120 h, read-out: Antiproliferative activity IC50
Method: as §1

[3] = system: PC-3; experiment: as above; settings: PC-3, Prostate carcinoma, 5 days; for IC50: Homo sapiens, 120 h, read-out: Antiproliferative activity IC50
Method: as §1

[4] = system: KB-3-1; experiment: as above; settings: KB-3-1, Cervix carcinoma, 5 days; for IC50: Homo sapiens, 120 h, read-out: Antiproliferative activity IC50
Method: as §1

[5] = system: A-549; experiment: as above; settings: A-549, Lung carcinoma, 5 days; for IC50: Homo sapiens, A549, 120 h, read-out: Antiproliferative activity IC50
Method: as §1

[6] = system: A-498; experiment: as above; settings: A-498, Kidney carcinoma, 5 days; for IC50: Homo sapiens, A498, 120 h, read-out: Antiproliferative activity IC50
Method: as §1

[7] = system: A-431; experiment: as above; settings: A-431, Epidermoid carcinoma, 5 days; for IC50: Homo sapiens, 120 h, read-out: Antiproliferative activity IC50
Method: as §1

[8] = system: cultured human tumor cell lines; experiment: Growth inhibition, statements across the whole panel of cell lines; settings: for activity among the compounds tested: in general, across the cell lines, result in words
Method: as §1

Compound | IC50 [1] [ng/mL] | IC50 [2] [ng/mL] | IC50 [3] [ng/mL] | IC50 [4] [ng/mL] | IC50 [5] [ng/mL] | IC50 [6] [ng/mL] | IC50 [7] [ng/mL] | activity among the compounds tested [8] | other results
COc1cc2cc(c1Cl)N(C)C(=O)C[C@H](OC(=O)C(C)C)[C@]1(C)O[C@H]1[C@H](C)[C@@H]1C[C@@](O)(NC(=O)O1)[C@H](OC)/C=C/C=C(\C)C2 [AP-3, Ansamitocin P-3, reference compound] | 0.0035 (≈ 0.00551 nM) | 0.03 (≈ 0.0472 nM) | 0.035 (≈ 0.0551 nM) | 0.11 (≈ 0.173 nM) | 0.1 (≈ 0.157 nM) | 1.1 (≈ 1.73 nM) | 0.05 (≈ 0.0787 nM) | – | –
19-fluoro-20-demethoxyansamitocin P3 [F-A] | – | – | – | – | – | – | – | most active | –
CO[C@@H]1/C=C/C=C(\C)Cc2ccc(Cl)c(c2)N(C)C(=O)C[C@H](OC(=O)C(C)C)[C@]2(C)O[C@H]2[C@H](C)[C@@H]2C[C@@]1(O)NC(=O)O2 [Cl-A, 19-chloro-20-demethoxyansamitocin P3] | 0.035 (≈ 0.0578 nM) | 0.1 (≈ 0.165 nM) | 0.12 (≈ 0.198 nM) | 0.35 (≈ 0.578 nM) | 0.4 (≈ 0.661 nM) | 3 (≈ 4.96 nM) | 0.15 (≈ 0.248 nM) | – | activities weaker than that of the natural AP-3 [8]: 3-50 times
20-demethoxy-19-vinylansamitocin P3 | – | – | – | – | – | – | – | most active | –
CO[C@@H]1/C=C/C=C(\C)Cc2ccc(Br)c(c2)N(C)C(=O)C[C@H](OC(=O)C(C)C)[C@]2(C)O[C@H]2[C@H](C)[C@@H]2C[C@@]1(O)NC(=O)O2 [Br-A, 19-bromo-20-demethoxyansamitocin P3] | – | – | – | – | – | – | – | – | Antiproliferative activity IC50 [1]: 0.03 ng/mL; Antiproliferative activity IC50 [2]: 0.05 ng/mL; Antiproliferative activity IC50 [3]: 0.1 ng/mL; Antiproliferative activity IC50 [4]: 0.3 ng/mL; Antiproliferative activity IC50 [5]: 0.3 ng/mL; Antiproliferative activity IC50 [6]: 4 ng/mL; Antiproliferative activity IC50 [7]: 0.1 ng/mL
CO[C@@H]1/C=C/C=C(\C)Cc2ccc(F)c(c2)N(C)C(=O)C[C@H](OC(=O)C(C)C)[C@]2(C)O[C@H]2[C@H](C)[C@@H]2C[C@@]1(O)NC(=O)O2 [F-A, 19-fluoro-20-demethoxyansamitocin P3] | 0.01 (≈ 0.017 nM) | 0.035 (≈ 0.0595 nM) | 0.035 (≈ 0.0595 nM) | 0.18 (≈ 0.306 nM) | 0.11 (≈ 0.187 nM) | 2 (≈ 3.4 nM) | 0.04 (≈ 0.0679 nM) | – | –

From patent publication EP2103618A1, “Novel ansamitocin derivatives” (Leibniz Universität Hannover, priority 2008, dated 2009)
